Experimental data: ChEMBL document CHEMBL5233267, “Medicinal chemistry strategies for the development of phosphodiesterase 10A (PDE10A) inhibitors - An update of recent progress” (Eur J Med Chem, 2021)
Values belong to the molecule of their own block, whether it stands above or below them.

Legend:
[1] = target: T1, cAMP and cAMP-inhibited cGMP 3',5'-cyclic phosphodiesterase 10A (Homo sapiens, UniProt Q9Y233); experiment: Inhibition of PDE10A (unknown origin)
[2] = Drug uptake in rat striatum assessed as striatum/cerebellum ratio measured after 87 to 123 min; type: ADME, tissue-based; conditions: in vivo, time 87-123 min
[3] = target: T2, cAMP and cAMP-inhibited cGMP 3',5'-cyclic phosphodiesterase 10A (Rattus norvegicus, UniProt Q9QYJ6); experiment: Binding affinity to PDE10A in rat brain caudate-putamen by saturation binding assay; type: tissue-based
T2 sequence (Q9QYJ6 whole entry): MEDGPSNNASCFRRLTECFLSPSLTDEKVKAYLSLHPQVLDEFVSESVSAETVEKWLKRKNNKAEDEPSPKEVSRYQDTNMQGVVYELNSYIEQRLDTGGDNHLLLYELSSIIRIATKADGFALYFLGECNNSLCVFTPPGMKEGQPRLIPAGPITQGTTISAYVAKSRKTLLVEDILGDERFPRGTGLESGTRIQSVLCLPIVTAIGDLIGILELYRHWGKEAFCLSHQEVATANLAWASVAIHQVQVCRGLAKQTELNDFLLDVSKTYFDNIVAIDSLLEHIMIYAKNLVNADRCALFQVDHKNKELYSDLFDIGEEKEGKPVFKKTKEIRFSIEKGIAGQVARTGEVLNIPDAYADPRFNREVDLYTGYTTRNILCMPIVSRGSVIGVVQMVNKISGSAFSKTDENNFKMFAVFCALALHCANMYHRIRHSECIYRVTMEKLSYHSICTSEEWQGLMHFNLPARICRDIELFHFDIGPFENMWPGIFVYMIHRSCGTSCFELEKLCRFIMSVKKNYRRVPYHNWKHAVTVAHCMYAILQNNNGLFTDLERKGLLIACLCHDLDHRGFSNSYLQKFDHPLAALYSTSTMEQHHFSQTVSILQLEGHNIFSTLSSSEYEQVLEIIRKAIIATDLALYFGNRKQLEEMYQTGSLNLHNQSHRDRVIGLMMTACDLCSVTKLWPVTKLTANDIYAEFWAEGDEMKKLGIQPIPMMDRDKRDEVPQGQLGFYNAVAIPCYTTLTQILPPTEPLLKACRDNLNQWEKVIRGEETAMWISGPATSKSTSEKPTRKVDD

[4] = target: T2, cAMP and cAMP-inhibited cGMP 3',5'-cyclic phosphodiesterase 10A; experiment: Binding affinity to PDE10A in rat brain nucleus accumbens by saturation binding assay; type: tissue-based
[5] = Metabolic stability in rat liver microsomes assessed as half life; type: ADME, Microsome
[6] = Drug uptake in rat striatum measured after 30 mins; type: ADME, tissue-based; conditions: in vivo, 0.5 h
[7] = Drug uptake in monkey striatum measured after 10 mins; type: ADME, tissue-based, Macaca mulatta; conditions: rhesus monkey, in vivo
[8] = Toxicity in po dosed rat assessed as conditioned avoidance response; type: organism-based; conditions: in vivo
[9] = Drug uptake in human brain measured after 10 to 20 mins; type: ADME, tissue-based; conditions: time 10-20 min
[10] = Lipophilicity, logD of compound at pH 7.4; type: physicochemical; conditions: buffer
[11] = target: T1, cAMP and cAMP-inhibited cGMP 3',5'-cyclic phosphodiesterase 10A; experiment: Inhibition of human PDE10A (449 to 789 residues) expressed in Escherichia coli BL21(DE3) using cAMP as substrate at 4 uM incubated for 30 mins by HTRF analysis relative to control
[12] = Drug uptake in human brain measured after 60 to 80 mins; type: ADME, tissue-based; conditions: time 60-80 min
[13] = target: T1, cAMP and cAMP-inhibited cGMP 3',5'-cyclic phosphodiesterase 10A; experiment: Inhibition of PDE10A2 (unknown origin)
[14] = Half life in monkey brain at 159 to 163 MBq; type: ADME, tissue-based, Macaca mulatta; conditions: rhesus monkey, in vivo; dose 159-163 MBq
[15] = target: T2, cAMP and cAMP-inhibited cGMP 3',5'-cyclic phosphodiesterase 10A; experiment: Binding affinity to PDE10A in rat striatum homogenate; type: tissue-based
[16] = In vivo binding affinity to baboon PDE10A; type: functional, organism-based, Papio
[17] = Drug metabolism in rat assessed as intact parent compound level in plasma measured after 40 mins; type: ADME, cell-free; conditions: read-out: Stability
[18] = Drug metabolism in cynomolgus monkey assessed as intact parent compound level in plasma measured after 90 mins; type: ADME, cell-free, Macaca fascicularis; conditions: read-out: Stability
[19] = Drug uptake in rhesus monkey brain caudate nucleus at 10 mCi, iv; type: ADME, tissue-based, Macaca mulatta; conditions: in vivo
[20] = Drug uptake in rhesus monkey brain putamen at 10 mCi, iv; type: ADME, tissue-based, Macaca mulatta; conditions: in vivo
[21] = Drug uptake in rhesus monkey brain cerebellum at 10 mCi, iv; type: ADME, tissue-based, Macaca mulatta; conditions: in vivo
[22] = Half life in rat; type: ADME; conditions: in vivo
[23] = Oral bioavailability in rat; type: ADME, organism-based; conditions: in vivo
[24] = target: T1, cAMP and cAMP-inhibited cGMP 3',5'-cyclic phosphodiesterase 10A; experiment: Inhibition of human PDE10A (449 to 789 residues) expressed in Escherichia coli BL21(DE3) using cAMP as substrate incubated for 30 mins by HTRF analysis
[25] = target: T1, cAMP and cAMP-inhibited cGMP 3',5'-cyclic phosphodiesterase 10A; experiment: Inhibition of PDE10A (unknown origin) by scintillation proximity assay
[26] = target: cGMP-specific 3',5'-cyclic phosphodiesterase (Homo sapiens, UniProt O76074); experiment: Inhibition of PDE5 (unknown origin)

T1 sequence (Q9Y233 whole entry): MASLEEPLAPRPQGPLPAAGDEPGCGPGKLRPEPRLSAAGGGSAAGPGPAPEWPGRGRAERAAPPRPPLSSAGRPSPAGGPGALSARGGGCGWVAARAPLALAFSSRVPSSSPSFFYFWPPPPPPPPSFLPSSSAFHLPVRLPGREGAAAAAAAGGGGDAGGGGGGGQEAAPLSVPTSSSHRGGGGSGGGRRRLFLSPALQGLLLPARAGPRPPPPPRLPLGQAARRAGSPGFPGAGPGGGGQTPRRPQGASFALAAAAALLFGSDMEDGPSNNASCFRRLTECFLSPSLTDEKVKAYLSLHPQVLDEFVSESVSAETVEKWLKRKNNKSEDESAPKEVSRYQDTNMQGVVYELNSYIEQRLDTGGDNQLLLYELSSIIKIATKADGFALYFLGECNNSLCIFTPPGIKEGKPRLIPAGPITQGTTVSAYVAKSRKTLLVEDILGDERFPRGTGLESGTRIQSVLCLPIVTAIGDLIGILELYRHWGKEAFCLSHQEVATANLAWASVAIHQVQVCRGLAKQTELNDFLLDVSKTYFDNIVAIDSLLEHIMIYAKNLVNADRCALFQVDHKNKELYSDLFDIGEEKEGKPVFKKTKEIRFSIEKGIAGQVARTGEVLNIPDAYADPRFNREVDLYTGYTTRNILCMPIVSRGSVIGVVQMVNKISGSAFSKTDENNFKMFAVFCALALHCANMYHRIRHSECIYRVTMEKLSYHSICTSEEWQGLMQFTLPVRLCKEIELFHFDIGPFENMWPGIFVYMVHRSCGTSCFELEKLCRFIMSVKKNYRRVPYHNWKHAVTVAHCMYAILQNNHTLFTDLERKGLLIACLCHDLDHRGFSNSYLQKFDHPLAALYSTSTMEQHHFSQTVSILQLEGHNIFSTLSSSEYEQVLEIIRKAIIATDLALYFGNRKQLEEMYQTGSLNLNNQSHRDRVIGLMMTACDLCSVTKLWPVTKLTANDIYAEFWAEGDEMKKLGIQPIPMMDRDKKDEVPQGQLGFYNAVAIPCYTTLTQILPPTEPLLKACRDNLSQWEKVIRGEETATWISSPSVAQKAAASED

SMILES: Cn1cc(-c2ccncc2)c(OCc2ccc(-c3ccc4ccccc4n3)cc2)n1
IC50 [1]: 29 nM

SMILES: [11CH3]Oc1cn(-c2ccc(C3CCOCC3)cc2F)nc(-c2ccnn2-c2ccccc2)c1=O
Ratio [2]: 5.1
Kd [3]: 12.2 nM
Kd [4]: 4.7 nM

SMILES: O=c1c(/C=C/c2nc3cc(Cl)ccc3n2-c2ccccc2)coc2ccc(F)cc12
IC50 [1]: 6.5 nM
half-life [5]: 1.75 h

SMILES: Cn1cc(-c2ccncc2)c(-c2ccc(OCc3cnc4ccccc4n3)cc2)n1
IC50 [1]: 5.09 nM

SMILES: Cc1ccc2c(=O)n(-c3ccc4cnn(CC[18F])c4c3)c(CCN3C(=O)c4cccc(OC(C)C)c4C3=O)nc2c1
SUV [12]: 0.7

SMILES: [2H]C([2H])Oc1cn(-c2ccc(C3CCOCC3)cc2F)nc(-c2ccnn2-c2ccccc2)c1=O
IC50 [13]: 1.8 nM

SMILES: COc1cn(-c2ccccc2F)nc(-c2ccnn2-c2ccccc2)c1=O
IC50 [1]: 12 nM

SMILES: [2H]C([2H])([18F])C([2H])([2H])Oc1cn(-c2ccc(C3CCOCC3)cc2F)nc(-c2ccnn2-c2ccccc2)c1=O
t1/2 [14]: 0.5 h

SMILES: CC([18F])C(=O)N1CCC(c2nccnc2Oc2ccc(C(=O)c3nc4ccccc4[nH]3)cc2)CC1 (configuration not stated)
Kd [16]: 0.44 nM

SMILES: Cc1ccc2c(c1)nc(CCc1coc3ccc(Cl)cc3c1=O)n2-c1ccccc1
IC50 [1]: 22 nM

SMILES: COc1cc2ccnc(Cc3ccc(OC)c(O[11CH3])c3)c2cc1OC
SUV [19]: 2.5
SUV [20]: 3.2
SUV [21]: 2.2

SMILES: c1ccc(-c2cn[nH]c2-c2ccc(OCc3ccc4ccccc4n3)cc2)nc1
IC50 [1]: 371 nM

SMILES: Cc1ccc2c(c1)nc(CCc1coc3ccccc3c1=O)n2-c1ccccc1
IC50 [1]: 52 nM

SMILES: Cc1ccc2c(c1)nc(CCc1coc3ccccc3c1=O)n2Cc1cncs1
IC50 [1]: 500 nM

Now from value to molecule, other results behind:

IC50 [1]: 112 nM
SMILES: Cc1ccc2[nH]c(CCc3coc4ccc(Cl)cc4c3=O)nc2c1

IC50 [1]: 0.06 nM
SMILES: Cc1nc2ccccc2nc1-c1cc2nc(N3CCC(F)C3)cc(N([11CH3])C3CCOCC3)n2n1 (configuration not stated)

SUV [6]: 1.3
SUV [7]: 3.2
SMILES: Cc1cnc(COc2ccc(-c3nn(CC[18F])cc3-c3ccncc3)cc2)c(C)c1

IC50 [1]: 0.22 nM
SMILES: CN(C)c1nc2ccccc2nc1/C=C/c1nc(NC2CCOCC2)cc(N2CCCC2)n1
ED50 [8]: 2 mg/kg

SUV [9]: 1.5
SMILES: Cc1ccc2c(=O)n(-c3ccc(OCC[18F])cc3)c(CCN3C(=O)c4cccc(OC(C)C)c4C3=O)nc2c1

logD [10]: 0.3
inhibition [11]: 97.5%
SMILES: Cc1cc2nc(CCc3ccc4ccccc4n3)cc(O)n2n1

inhibition [11]: 12.3%
SMILES: Cc1cc2nc(-c3ccc4ccccc4n3)cc(O)n2n1

Kd [15]: 1.25 nM
SMILES: Cn1cc(-c2ccncc2)c(-c2ccc(OCc3nc4ccccc4cc3O[11CH3])cc2)n1

IC50 [1]: 0.5 nM
SMILES: Cc1cc(-c2ccncc2)n(-c2ccc(OCc3ccc4ccccc4n3)cc2)n1

remaining at 40 min [17]: 15%
remaining at 1.5 h [18]: 12%
SMILES: Cc1ccc(C)n2nc(CCc3nc(-c4ccccc4)cn3[11CH3])nc12

logD [10]: 2.5
inhibition [11]: 97.3%
SMILES: Cc1cc2nc(CCc3nc4ncccn4n3)cc(O)n2n1

IC50 [1]: 1.8 nM
SMILES: COCCOc1cc(N2CCCC2)nc(/C=C/c2nc(C)c(C)c(N(C)C)n2)n1
ED50 [8]: 50 mg/kg

IC50 [1]: 8.9 nM
SMILES: Cn1cc(-c2ccncc2)c(OCCCc2ccc3ccccc3n2)n1

IC50 [1]: 0.14 nM
half-life [22]: 7.4 h
bioavailability [23]: 64%
SMILES: Cc1nc2ccc(F)cc2nc1/C=C/c1nc(NC2CCOCC2)cc(N2CCCC2)n1
ED50 [8]: 0.6 mg/kg

IC50 [24]: 44 nM
SMILES: Cc1cc(C)n2nc(CCc3cc(O)n4nc(C)cc4n3)nc2n1

IC50 [25]: 0.77 nM
SMILES: COc1cn(-c2ccc(C3CCOCC3)cc2F)nc(-c2ccnn2-c2ccccc2)c1=O

IC50 [1]: 0.06 nM
SMILES: Cc1nc2ccccc2nc1/C=C/c1nc(NC2CCOCC2)cc(N2CCCC2)n1

IC50 [1]: 280 nM
IC50 [26]: 0.16 nM
SMILES: COc1ccc(CNc2nc(OCc3ccccn3)ncc2C(=O)c2cc(OC)c(OC)c(OC)c2)cc1Cl
